Test results as given in PubChem BioAssay AID1963973 (Molecular Pharmacology Branch, DTP, NCI, 2024).
pIC50: −log10 of the molar value.

Tested on: 883617-216-R-J1-PDC tumor spheroids, viability
Assay: Anticancer human tumor 883617-216-R-J1-PDC patient-derived bladder carcinoma cell line growth inhibition [PI3K]
Settings: spheroids with HUVEC and MSC; for viability, T/C: stronger effect = lower value; active means viability on the fitted dose curve at most 10% of control; inactive means the rest
In short: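 Tumor cells grown as multi-cell spheroids with HUVEC endothelial cells and MSC fibroblast-like stroma were treated with targeted agents combined with inavolisib, alpelisib, duvelisib or copanlisib. Doses fell in half-log steps from near clinical Cmax, else from 10 microM. Viability was measured.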

[1] = curve of first compound, second compound 0.0316 µM
[2] = curve of first compound, second compound 0.1 µM
[3] = curve of first compound, second compound 0.316 µM
[4] = curve of first compound, second compound 1 µM
[5] = second compound 0.0316 µM, first compound 0.0316 µM
[6] = second compound 0.0316 µM, first compound 0.1 µM
[7] = second compound 0.0316 µM, first compound 0.316 µM
[8] = second compound 0.0316 µM, first compound 1 µM
[9] = second compound 0.0316 µM, first compound 3.16 µM
[10] = second compound 0.0316 µM, first compound 10 µM
[11] = second compound 0.1 µM, first compound 0.0316 µM
[12] = second compound 0.1 µM, first compound 0.1 µM
[13] = second compound 0.1 µM, first compound 0.316 µM
[14] = second compound 0.1 µM, first compound 1 µM
[15] = second compound 0.1 µM, first compound 3.16 µM
[16] = second compound 0.1 µM, first compound 10 µM
[17] = second compound 0.316 µM, first compound 0.0316 µM
[18] = second compound 0.316 µM, first compound 0.1 µM
[19] = second compound 0.316 µM, first compound 0.316 µM
[20] = second compound 0.316 µM, first compound 1 µM
[21] = second compound 0.316 µM, first compound 3.16 µM
[22] = second compound 0.316 µM, first compound 10 µM
[23] = second compound 1 µM, first compound 0.0316 µM
[24] = second compound 1 µM, first compound 0.1 µM
[25] = second compound 1 µM, first compound 0.316 µM
[26] = second compound 1 µM, first compound 1 µM
[27] = second compound 1 µM, first compound 3.16 µM
[28] = second compound 1 µM, first compound 10 µM
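Further: spheroids exposed to agents for 7 days before the viability read.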

CC(C)NCC(C(=O)N1CCN(c2ncnc3c2C(C)CC3O)CC1)c1ccc(Cl)cc1 (centres undefined) + CC(Nc1ncnc2nc[nH]c12)c1cc2cccc(Cl)c2c(=O)n1-c1ccccc1
active: viability, T/C [10] 9.17% | viability, T/C [16] 8.02% | viability, T/C [22] 8.48% | viability, T/C [28] 6.81% | viability, T/C (second compound 3.16 µM, first compound 10 µM) 7.2% | viability, T/C (second compound 10 µM, first compound 10 µM) 6.37%
6.25: pIC50 [2]
6.46: pIC50 (curve of first compound, second compound 3.16 µM)
6.29: pIC50 [4]
6.31: pIC50 [3]
6.28: pIC50 [1]
> 7.50: pIC50 (curve of first compound, second compound 10 µM)
inactive: viability, T/C [5] 87.6% | viability, T/C [6] 84.8% | viability, T/C [7] 55% | viability, T/C [8] 39.7% | viability, T/C [9] 17.8% | viability, T/C [11] 78.2% | viability, T/C [12] 76% | viability, T/C [13] 59.9% | viability, T/C [14] 38.7% | viability, T/C [15] 18.9% | viability, T/C [17] 97.8% | viability, T/C [18] 78.8% | viability, T/C [19] 60.9% | viability, T/C [20] 35.4% | viability, T/C [21] 17.8% | viability, T/C [23] 69.1% | viability, T/C [24] 81.1% | viability, T/C [25] 52.4% | viability, T/C [26] 40% | viability, T/C [27] 17.1% | viability, T/C (second compound 3.16 µM, first compound 0.0316 µM) 64% | viability, T/C (second compound 3.16 µM, first compound 0.1 µM) 53.8% | viability, T/C (second compound 3.16 µM, first compound 0.316 µM) 55.2% | viability, T/C (second compound 3.16 µM, first compound 1 µM) 28.8% | viability, T/C (second compound 3.16 µM, first compound 3.16 µM) 16.5% | viability, T/C (second compound 10 µM, first compound 0.0316 µM) 49.6% | viability, T/C (second compound 10 µM, first compound 0.1 µM) 42.7% | viability, T/C (second compound 10 µM, first compound 0.316 µM) 38.7% | viability, T/C (second compound 10 µM, first compound 1 µM) 25.4% | viability, T/C (second compound 10 µM, first compound 3.16 µM) 13.1%

CNC(=O)c1ccc(N2C(=S)N(c3ccc(C#N)c(C(F)(F)F)c3)C(=O)C2(C)C)cc1F
inactive: viability, T/C (compound 0.0316 µM) 94.7% [middle of 4 runs] | viability, T/C (compound 0.316 µM) 99.7% [middle of 4 runs] | viability, T/C (compound 1 µM) 98.9% [middle of 4 runs] | viability, T/C (compound 3.16 µM) 101% [middle of 4 runs]
< 5.00: pIC50 (curve of compound)

CC1(C)CCC(CN2CCN(c3ccc(C(=O)NS(=O)(=O)c4ccc(NCC5CCOCC5)c([N+](=O)[O-])c4)c(Oc4cnc5[nH]ccc5c4)c3)CC2)=C(c2ccc(Cl)cc2)C1 + CC(Nc1ccc2c(c1)OCCn1cc(N3C(=O)OCC3C(F)F)nc1-2)C(N)=O
5.42: pIC50 [1]
5.27: pIC50 (curve of first compound, second compound 0.00316 µM)
inactive: viability, T/C (second compound 0.00316 µM, first compound 0.0316 µM) 83.5% | viability, T/C (second compound 0.00316 µM, first compound 0.1 µM) 61.8% | viability, T/C (second compound 0.00316 µM, first compound 0.316 µM) 97.3% | viability, T/C (second compound 0.00316 µM, first compound 1 µM) 107% | viability, T/C (second compound 0.00316 µM, first compound 3.16 µM) 90.2% | viability, T/C (second compound 0.01 µM, first compound 0.0316 µM) 86.6% | viability, T/C (second compound 0.01 µM, first compound 0.1 µM) 74.8% | viability, T/C (second compound 0.01 µM, first compound 0.316 µM) 87.8% | viability, T/C (second compound 0.01 µM, first compound 1 µM) 82.8% | viability, T/C (second compound 0.01 µM, first compound 3.16 µM) 71.8% | viability, T/C [5] 66.7% | viability, T/C [6] 51.6% | viability, T/C [7] 65.5% | viability, T/C [8] 65.4% | viability, T/C [9] 57.8% | viability, T/C [11] 29.4% | viability, T/C [12] 36.4% | viability, T/C [13] 41.5% | viability, T/C [14] 45.8% | viability, T/C [15] 47.5% | viability, T/C [17] 21.2% | viability, T/C [18] 22.1% | viability, T/C [19] 22.1% | viability, T/C [20] 25.4% | viability, T/C [21] 26.4% | viability, T/C [22] 2.64% | viability, T/C [23] 17.2% | viability, T/C [24] 13% | viability, T/C [25] 15.3% | viability, T/C [26] 14.3% | viability, T/C [27] 21.6% | viability, T/C [28] 1.47%
active: viability, T/C (second compound 0.00316 µM, first compound 10 µM) 4.2% | viability, T/C (second compound 0.01 µM, first compound 10 µM) 3.91% | viability, T/C [10] 5.24% | viability, T/C [16] 2.96%
> 7.50: pIC50 [2] | pIC50 [3] | pIC50 [4]
5.34: pIC50 (curve of first compound, second compound 0.01 µM)
